The values below come from ChEMBL document CHEMBL1201862, “PubChem BioAssay data set” (2004).

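Method: 48-hour compound exposure of cells in 96-well plates, five concentrations, linear interpolation of endpoints. The concentration for 50% growth inhibition is given as GI50.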 Calls of active or inactive are those of the source. Cut-off read from the data, not from the text of the source: active = GI50 up to about 1.1 µM and inactive = higher.

Among the test systems are HCT-116; MDA-MB-231; EKVX; TK-10; SK-MEL-2; HL-60; SNB-75; K562; IGROV-1; NCI/ADR-RES; PC-3; DU-145; HOP-92; Hs-578T; COLO 205; MDA-N; NCI-H460; HCC 2998; SR.
Test in all cases: NCI-60 cell line screen, 48 h

Regarding `O=C(O)CC(Sc1ccccc1)c1ccccc1` (stereo unspecified), the GI50 with HCT-116, in the experiment with MDA-MB-231, in the experiment with EKVX, in the experiment with TK-10, with SK-MEL-2 and with HL-60 was > 100 µM (inactive) each time. Moreover, the GI50 in the experiment on SNB-75, with K562, in the experiment with IGROV-1, in the experiment on NCI/ADR-RES, in the experiment on PC-3 and with DU-145 was > 100 µM (inactive) in each case. Besides, the GI50 in the experiment with HOP-92, with Hs-578T, with COLO 205 and with MDA-N was > 100 µM (inactive) each time.

For the compound `CCOC(=O)c1ccc(-n2nnc(C(N)=O)c2O)cc1`, the GI50 in the experiment on HCT-116, in the experiment on MDA-MB-231, with EKVX, in the experiment on TK-10, in the experiment on SK-MEL-2 and in the experiment with NCI-H460 was > 100 µM (inactive) each time. Moreover, the GI50 in the experiment on SNB-75, in the experiment with K562, in the experiment with IGROV-1, in the experiment with NCI/ADR-RES, in the experiment on HCC 2998 and in the experiment on PC-3 was > 100 µM (inactive) throughout. The GI50 in the experiment on DU-145, in the experiment with Hs-578T, in the experiment with COLO 205 and with MDA-N was > 100 µM (inactive) throughout.

As for `C=C(C)C1Cc2c(cc(OC)c3c(=O)c4cccc(O)c4oc23)O1` (stereo unspecified), the GI50 in the experiment with HCT-116 was 24.8 µM (inactive); in the experiment with MDA-MB-231 it was 23.9 µM (inactive); in the experiment on EKVX it was > 100 µM (inactive); in the experiment with TK-10, 19.9 µM (inactive); in the experiment on SK-MEL-2, 18.6 µM (inactive); in the experiment on NCI-H460, 28.6 µM (inactive). Besides, the GI50 was 39.9 µM (inactive) in the experiment on HL-60; 16.3 µM (inactive) with SNB-75; > 100 µM (inactive) in the experiment on K562; 18.4 µM (inactive) with IGROV-1; 36.1 µM (inactive) with SR; 24.8 µM (inactive) in the experiment on NCI/ADR-RES. For the same compound, the GI50 is 34.1 µM (inactive) with HCC 2998; 38.2 µM (inactive) with PC-3; 45.8 µM (inactive) in the experiment on DU-145; 25.6 µM (inactive) in the experiment with Hs-578T; 56.9 µM (inactive) in the experiment on COLO 205; 20 µM (inactive) with MDA-N.

For `COc1ccc(C(=O)/C=C/c2ccc(OCCCOc3ccc(/C=C/C(=O)c4ccc(OC)cc4)cc3)cc2)cc1`, the GI50 in the experiment on HCT-116 was 24.7 µM (inactive); in the experiment with MDA-MB-231, > 100 µM (inactive); with EKVX, > 100 µM (inactive); in the experiment on TK-10 it was > 100 µM (inactive); with SK-MEL-2 it was > 100 µM (inactive); in the experiment on NCI-H460 it was > 100 µM (inactive). Further, the GI50 in the experiment on HL-60 was > 100 µM (inactive); with SNB-75, 45.4 µM (inactive); in the experiment on K562, > 100 µM (inactive); in the experiment with IGROV-1, > 100 µM (inactive); with SR it was > 100 µM (inactive); in the experiment on NCI/ADR-RES, > 100 µM (inactive). Also, the GI50 in the experiment on HCC 2998, with PC-3, with DU-145, in the experiment on Hs-578T, in the experiment on COLO 205 and in the experiment on MDA-N was > 100 µM (inactive) in each case.

`CC(=O)ONC(C(=O)C(C)(C)C)C(=O)C(C)(C)C`: the GI50 in the experiment with HCT-116, in the experiment on MDA-MB-231, in the experiment on EKVX, in the experiment with TK-10, with SK-MEL-2 and with NCI-H460 was > 100 µM (inactive) throughout. The GI50 in the experiment on HL-60, in the experiment on SNB-75, in the experiment with K562, in the experiment with IGROV-1, with NCI/ADR-RES and in the experiment on HCC 2998 was > 100 µM (inactive) throughout. Further, the GI50 in the experiment with PC-3, in the experiment with DU-145, with HOP-92, in the experiment on Hs-578T, in the experiment with COLO 205 and in the experiment on MDA-N was > 100 µM (inactive) in each case.

Regarding `COC(=O)c1ccc(/C=C2\Oc3cc(O)ccc3C2=O)cc1`, the GI50 with HCT-116 is 63.5 µM (inactive); in the experiment with MDA-MB-231, 65.9 µM (inactive); in the experiment with EKVX, 49.2 µM (inactive); with TK-10, 53 µM (inactive); in the experiment with NCI-H460, > 100 µM (inactive); in the experiment with HL-60 it was 44.2 µM (inactive). For the same compound, the GI50 in the experiment with SNB-75 was 39.4 µM (inactive); in the experiment with K562, 47.8 µM (inactive); in the experiment with IGROV-1, > 100 µM (inactive); in the experiment on SR it was 42.3 µM (inactive); with NCI/ADR-RES, > 100 µM (inactive); with HCC 2998, > 100 µM (inactive). Further, the GI50 was 91.4 µM (inactive) in the experiment with PC-3; > 100 µM (inactive) in the experiment with DU-145; 52.4 µM (inactive) in the experiment on Hs-578T; > 100 µM (inactive) with COLO 205; 67.3 µM (inactive) in the experiment with MDA-N.

Take `CN(Cc1cnc2nc(N)nc(N)c2n1)c1ccc(C(=O)NCCCS(=O)(=O)O)cc1`: the GI50 in the experiment with HCT-116 is 83.9 µM (inactive); in the experiment with MDA-MB-231 it was > 100 µM (inactive); in the experiment with EKVX it was > 100 µM (inactive); in the experiment with TK-10, > 100 µM (inactive); in the experiment with SK-MEL-2, > 100 µM (inactive); in the experiment on NCI-H460 it was > 100 µM (inactive). For the same compound, the GI50 in the experiment on SNB-75 was > 100 µM (inactive); with K562 it was > 100 µM (inactive); in the experiment on IGROV-1 it was > 100 µM (inactive); in the experiment on SR it was 37.6 µM (inactive); with NCI/ADR-RES, > 100 µM (inactive); in the experiment on HCC 2998 it was > 100 µM (inactive). Moreover, the GI50 in the experiment with PC-3 is > 100 µM (inactive); in the experiment on DU-145, > 100 µM (inactive); with HOP-92, 0.0264 µM (active); in the experiment with Hs-578T, > 100 µM (inactive); with COLO 205, > 100 µM (inactive); in the experiment on MDA-N, > 100 µM (inactive).

As to `OC[C@@H](O)[C@H](O)[C@@H](O)/C=N/Nc1ccc(Cl)nn1`, the GI50 in the experiment on HCT-116, in the experiment on MDA-MB-231, in the experiment on EKVX, with TK-10, with SK-MEL-2 and in the experiment on NCI-H460 was > 100 µM (inactive) each time. Moreover, the GI50 with HL-60, in the experiment with IGROV-1, in the experiment with NCI/ADR-RES, with HCC 2998, with PC-3 and in the experiment with DU-145 was > 100 µM (inactive) each time. In addition, the GI50 with HOP-92, in the experiment on Hs-578T, in the experiment with COLO 205 and with MDA-N was > 100 µM (inactive) throughout.

In the case of `Oc1ccc(-c2nc(-c3cccnc3)c(-c3ccc(F)cc3)[nH]2)cc1`, the GI50 was 17.4 µM (inactive) in the experiment with HCT-116; 18.9 µM (inactive) with MDA-MB-231; 19.3 µM (inactive) with EKVX; 18.6 µM (inactive) with TK-10; 17.9 µM (inactive) in the experiment on SK-MEL-2; 23.3 µM (inactive) with NCI-H460. Further, the GI50 with HL-60 is 15.8 µM (inactive); in the experiment on SNB-75 it was 18.2 µM (inactive); in the experiment on K562, 16 µM (inactive); in the experiment with IGROV-1 it was 17.5 µM (inactive); with SR, 16.9 µM (inactive); in the experiment on NCI/ADR-RES, 19 µM (inactive). In addition, the GI50 with HCC 2998 was 19.8 µM (inactive); in the experiment on PC-3, 16.7 µM (inactive); with DU-145, 24 µM (inactive); in the experiment on Hs-578T it was 20.9 µM (inactive); with COLO 205, 19.5 µM (inactive); with MDA-N it was 19 µM (inactive).

With `O=c1c(C(c2ccc(/C=C/c3ccccc3)cc2)c2c(O)oc3ccccc3c2=O)c(O)oc2ccccc12`, the GI50 with HCT-116 was 29.6 µM (inactive); with MDA-MB-231, 28.7 µM (inactive); in the experiment with EKVX, 28.6 µM (inactive); with TK-10 it was 92.5 µM (inactive); in the experiment with SK-MEL-2, 34.8 µM (inactive); in the experiment with NCI-H460, 24.5 µM (inactive). Besides, the GI50 in the experiment on HL-60 is 49.3 µM (inactive); in the experiment on SNB-75 it was 19.7 µM (inactive); in the experiment with K562 it was > 100 µM (inactive); in the experiment on IGROV-1 it was 27.3 µM (inactive); in the experiment with NCI/ADR-RES it was 24.9 µM (inactive); in the experiment with HCC 2998, 23.3 µM (inactive). The GI50 in the experiment on PC-3 was 40.2 µM (inactive); with DU-145, 50.8 µM (inactive); with HOP-92, 23.1 µM (inactive); with Hs-578T it was 26.8 µM (inactive); in the experiment on COLO 205, 22.6 µM (inactive); in the experiment on MDA-N, 21.8 µM (inactive).

Regarding `CCOC(=O)c1cc(C2CCN(c3ccccc3)C2=O)c(C(=O)/C=C(/C)N)[nH]1` (stereo unspecified), the GI50 with HCT-116 was 12.7 µM (inactive); in the experiment with MDA-MB-231 it was 56.4 µM (inactive); in the experiment with EKVX, 23.6 µM (inactive); in the experiment on TK-10, 28.2 µM (inactive); with SK-MEL-2, > 100 µM (inactive); in the experiment with NCI-H460, 33.2 µM (inactive). Moreover, the GI50 was > 100 µM (inactive) in the experiment on HL-60; 8.05 µM (inactive) in the experiment with SNB-75; 68.2 µM (inactive) in the experiment on K562; 33.7 µM (inactive) in the experiment with IGROV-1; > 100 µM (inactive) in the experiment with SR; 44 µM (inactive) in the experiment with NCI/ADR-RES. For the same compound, the GI50 in the experiment on HCC 2998 was > 100 µM (inactive); in the experiment on PC-3, 39.5 µM (inactive); with DU-145, 54.5 µM (inactive); in the experiment with Hs-578T it was 14.9 µM (inactive); with COLO 205 it was > 100 µM (inactive); with MDA-N, 71.4 µM (inactive).
